Source: patent publication US12661349B1, “Pharmaceutically acceptable salt of sphingosine-1-phosphate receptor agonist, and crystalline form thereof” (LG CHEM, LTD., priority 2021, dated 2026)

Test: Water solubility by quantitative analysis (HPLC)
Type: physicochemical
Settings: for Water solubility (μg/mL, HPLC) 24 hr: comparison of salt forms of Compound 1; for water solubility: quantitative analysis by HPLC, crystalline form of the salt
Experimental: (4) Quantitative Analysis (HPLC)
Approximately 26.7 mg of the sample was precisely weighed and placed in a 500 mL volumetric flask. 450 mL of a diluted solution (methanol:purified water=1:1) was added thereto, completely dissolved, and then filled with the diluted solution up to the marked line. HPLC equipment and analysis methods are represented in Table 1 below.
Quantitative analysis was carried out in the same manner as in Example 2.
Various types of salts were prepared. After analyzing characteristics in the same manner as above, the comparisons with potassium salt and methanesulfonic acid salt (mesylate) are represented in Table 4 below.

Row | SMILES | Water solubility (μg/mL, HPLC) 24 hr (HPLC quantitation, 24 hr) | water solubility | solubility at 24 h (thermodynamic from solid, HPLC quantitation, 24 hr, comparison of salt forms of Compound 1, read-out: Water solubility (μg/mL, HPLC) 24 hr)
1 | CC(C)n1nc(Cl)c2cc(COc3ccc4c(c3)CCC(CN3CCC(C(=O)[O-])CC3)=C4Cl)ccc21.[K+] [K salt (1 eq.), potassium salt of 1-[1-chloro-6-(3-chloro-1-isopropyl-1H-indazol-5-ylmethoxy)-3,4-dihydro-naphthalen-2-ylmethyl]-piperidine-4-carboxylic acid] | 33238.5 µg/mL | 33238.5 µg/mL | 
2 | CC(C)n1nc(Cl)c2cc(COc3ccc4c(c3)CCC(CN3CCC(C(=O)O)CC3)=C4Cl)ccc21.CS(=O)(=O)O [Mesylate (1 eq.), methanesulfonic acid salt (mesylate) of 1-[1-chloro-6-(3-chloro-1-isopropyl-1H-indazol-5-ylmethoxy)-3,4-dihydro-naphthalen-2-ylmethyl]-piperidine-4-carboxylic acid] | 536.8 µg/mL | 536.8 µg/mL | 
3 | CC(C)n1nc(Cl)c2cc(COc3ccc4c(c3)CCC(CN3CCC(C(=O)O)CC3)=C4Cl)ccc21 [Free form, 1-[1-Chloro-6-(3-chloro-1-isopropyl-1H-indazol-5-ylmethoxy)-3,4-dihydro-naphthalen-2-ylmethyl]-piperidine-4-carboxylic acid] |  |  | 3.7 µg/mL
